The values below come from patent publication US10703756B2, “Pyrrolo[2,3-D]pyrimidinyl, pyrrolo[2,3-B]pyrazinyl, pyrrolo[2,3-B]pyridinyl acrylamides and epoxides thereof” (Pfizer Inc., priority 2015, dated 2020).

Structures are written as SMILES. Like-named read-outs stand apart in the source and are kept apart here.

In series [1] the target is T1, JAK3 enzyme (Homo sapiens, UniProt P52333).
T1 sequence (P52333 1-1124): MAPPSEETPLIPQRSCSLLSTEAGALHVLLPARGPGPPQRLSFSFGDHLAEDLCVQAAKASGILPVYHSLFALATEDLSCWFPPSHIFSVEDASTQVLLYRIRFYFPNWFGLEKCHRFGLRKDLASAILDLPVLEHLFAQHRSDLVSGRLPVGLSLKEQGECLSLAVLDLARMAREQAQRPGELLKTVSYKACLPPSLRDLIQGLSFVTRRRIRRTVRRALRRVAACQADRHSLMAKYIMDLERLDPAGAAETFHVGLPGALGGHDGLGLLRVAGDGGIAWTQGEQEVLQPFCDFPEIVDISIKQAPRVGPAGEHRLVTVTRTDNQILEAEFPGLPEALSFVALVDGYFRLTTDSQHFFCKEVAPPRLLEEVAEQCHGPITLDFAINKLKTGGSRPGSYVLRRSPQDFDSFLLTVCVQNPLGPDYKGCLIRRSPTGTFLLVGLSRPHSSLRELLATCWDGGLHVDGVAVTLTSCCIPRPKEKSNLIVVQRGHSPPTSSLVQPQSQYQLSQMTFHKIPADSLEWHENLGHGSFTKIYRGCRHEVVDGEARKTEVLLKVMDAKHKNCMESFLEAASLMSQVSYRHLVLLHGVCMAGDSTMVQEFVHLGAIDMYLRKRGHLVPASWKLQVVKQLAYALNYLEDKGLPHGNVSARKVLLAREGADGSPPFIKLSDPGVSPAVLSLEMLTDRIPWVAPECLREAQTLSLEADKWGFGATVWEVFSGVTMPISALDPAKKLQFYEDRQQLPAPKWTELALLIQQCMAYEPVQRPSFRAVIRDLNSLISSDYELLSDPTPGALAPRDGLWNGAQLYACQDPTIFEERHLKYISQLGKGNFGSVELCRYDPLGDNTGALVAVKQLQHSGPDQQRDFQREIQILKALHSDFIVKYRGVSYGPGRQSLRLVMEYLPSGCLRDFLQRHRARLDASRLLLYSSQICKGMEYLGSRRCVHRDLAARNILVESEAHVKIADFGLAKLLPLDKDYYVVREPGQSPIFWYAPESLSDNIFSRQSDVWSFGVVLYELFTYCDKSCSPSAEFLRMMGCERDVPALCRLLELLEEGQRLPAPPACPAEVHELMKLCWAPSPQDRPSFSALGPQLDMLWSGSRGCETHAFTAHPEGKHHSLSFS
Briefly: JAK Caliper Enzyme Assay at 4 μM ATP. It counts as biochemical. In short, it runs like this:
(§1)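 Read-out: microfluidic mobility-shift separation quantifying substrate peptide versus phosphopeptide. Compounds were tested as 11-point half-log dilutions, top 600 μM in DMSO before transfer. Enzyme level and reaction time were tuned for each prep so conversion stayed at 20%-30%.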

Series [2] addresses T1, JAK3 enzyme. Briefly: JAK Caliper Enzyme Assay at 1 mM ATP. It counts as biochemical. In short, it runs like this: as §1
Series [3] is described as follows: Stability of JAK3 Covalent Inhibitors in Human Whole Blood. It counts as in vitro ADME. As to conditions: 1 μM test compound, 37° C., 180 min incubation; for half-life at 1 μM: both sexes, read-out: Human blood stability t1/2. On the procedure: Stability of JAK3 Covalent Inhibitors in Rat and Human Whole Blood
Rat blood was collected from 3 male Sprague-Dawley rats (200-250 g, Charles River Laboratories) and pooled for each study. Human blood was collected from healthy subjects at the Occupational Health & Wellness Center at Pfizer, Groton, Conn. and pooled for each study. Both rat and human blood was collected freshly into K2-EDTA tubes and kept on ice. An aliquot of the blood was transferred to microtubes and pre-warmed for 10 min at 37° C. using a heat block. The test compound was then added (1 μM final concentration) and the incubation was continued for 180 min at 37° C. in duplicates. An aliquot of the incubation mixture was removed at designated time points during the course of the incubation, mixed with an aliquot of acetonitrile containing an internal standard, vortexed and centrifuged. The resulting supernatants were removed and subjected to LC-MS/MS analyses to determine parent compound concentrations. Peak area ratios of the parent compound vs the internal standard were used to determine the % of parent compound remaining vs incubation time.

For series [4], the system named is IL-15 induced P-STAT5 in human PBMC. Briefly: PBMC IL-15 Induced P-STAT5. It counts as cell-based. In short, it runs like this: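 Flow cytometry gated on total lymphocytes measured STAT5 staining (Alexa Fluor 647 antibody, overnight, 4 °C) in fixed, methanol-permeabilised human PBMC. Cells had received compound for 15 min at 37 °C (0.2% DMSO final), followed by 41 ng/mL final human IL-15 for 15 min.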

Setting [5] is: human PBMC, IL-15 final 41 ng/mL, read-out: PBMC IL15_pSTAT5_IC50.

Consider `C=CC(=O)N1C[C@H](Nc2cnc3[nH]cc(C(=O)N[C@H](C)COC)c3n2)CC[C@@H]1C` (single isomer, unassigned) [Example 69], for which the IC50 amounted to 0.782 nM in series [1], 137 nM in series [2] and 2610 nM in series [4] (setting [5]). Also, the half-life at 1 μM in series [3] was greater than 6 h.

For the molecule `C=CC(=O)N1CC[C@H](Oc2cnc3[nH]cc(C(=O)N[C@@H](C)COC)c3n2)C[C@H]1C` (single isomer, unassigned) [Example 72], the results for the IC50 in series [1], in series [2] and in series [4] (setting [5]) were 1.13 nM, 80 nM and 415 nM, respectively. The half-life at 1 μM in series [3] was 2.77 h.

Turning to `C=CC(=O)N1C[C@@H](Nc2cnc3[nH]cc(C(=O)NCC)c3n2)CC[C@H]1C` (single isomer, unassigned) [Example 75], the values for the IC50 in series [1], in series [2] and in series [4] (setting [5]) were 1.6 nM, 316 nM and 2280 nM, respectively. The half-life at 1 μM in series [3] was greater than 6 h.

`C=CC(=O)N1CC(Nc2cnc3[nH]cc(C(=O)NCC)c3n2)CCC1C` (single isomer, unassigned) [Example 76]: the values for the IC50 in series [1], in series [2] and in series [4] (setting [5]) were 0.566 nM, 136 nM and 1150 nM, respectively. Moreover, the half-life at 1 μM in series [3] is greater than 6 h.

Turning to `C=CC(=O)N1CC[C@H](Oc2cnc3[nH]cc(C(=O)NCC)c3n2)C[C@H]1C` (single isomer, unassigned) [Example 78], the IC50 in series [1] was determined as 1.83 nM; in series [2] it was 314 nM; in series [4] (setting [5]) it was 935 nM. Further, the half-life at 1 μM in series [3] is greater than 6 h.

In the case of `C=CC(=O)N1C[C@@H](CO)C[C@@H](Nc2ncnc3[nH]ccc23)C1` (single isomer, unassigned) [Example 98], the values for the IC50 in series [1], in series [2] and in series [4] (setting [5]) were 1.26 nM, 152 nM and 932 nM, respectively. Also, in series [3], the half-life at 1 μM turned out to be 1.76 h.

Turning to `C=CC(=O)N1C[C@@H](COCCC#N)C[C@@H](Nc2ncnc3[nH]ccc23)C1` (single isomer, unassigned) [Example 100], the values for the IC50 in series [1], in series [2] and in series [4] (setting [5]) were 76.3 nM, 2660 nM and greater than 10000 nM, respectively. The “Human blood stability t1/2” value in series [3] amounted to 3.52 h.

For the molecule `C=CC(=O)N1C[C@@H](Nc2ncnc3[nH]ccc23)CC[C@@H]1[C@@H](C)O` (single isomer, unassigned) [Example 111], the IC50 came to 0.858 nM in series [1], 77 nM in series [2] and 537 nM in series [4] (setting [5]). Also, the half-life at 1 μM in series [3] came out at 2.87 h.

For the molecule `C=CC(=O)N1CC[C@@H](Nc2cnc3[nH]cc(C(=O)NCC)c3n2)C1` (single isomer, unassigned) [Example 243], the IC50 in series [1] came out at 0.586 nM; in series [2], 141 nM; in series [4] (setting [5]) it was 1730 nM. In series [3], the half-life at 1 μM is greater than 6 h.

Regarding `C=CC(=O)N1CC[C@@H](Nc2cnc3[nH]cc(C(=O)N[C@@H](C)COC)c3n2)C[C@H]1C` (stereo in doubt) [Example 56, 2-{[(2R,4R)-1-acryloyl-2-methylpiperidin-4-yl]amino}-N-[(2S)-1-methoxypropan-2-yl]-5H-pyrrolo[2,3-b]pyrazine-7-carboxamide], the IC50 in series [1] came to 0.927 nM; in series [2] it was 70 nM; in series [4] (Homo sapiens, PBMC, read-out: PBMC IL15_pSTAT5_IC50 (nM)), 1600 nM. Further, in series [3], the half-life at 1 μM is greater than 6 h.

For the molecule `C=CC(=O)N1CCC(Nc2cnc3[nH]cc(C(=O)NCCCC(F)(F)F)c3n2)C1` (stereo in doubt) [Example 237, 2-{[(3S)-1-acryloylpyrrolidin-3-yl]amino}-N-(4,4,4-trifluorobutyl)-5H-pyrrolo[2,3-b]pyrazine-7-carboxamide], the IC50 in series [1] turned out to be 0.25 nM; in series [2], 56 nM; in series [4] (setting [5]) it was 780 nM. In addition, the half-life at 1 μM in series [3] came out at 4.32 h.

`C=CC(=O)N1CCC(Nc2cnc3[nH]cc(C(=O)NCC(C)C)c3n2)C1` (stereo in doubt) [Example 256, 2-{[(3S)-1-acryloylpyrrolidin-3-yl]amino}-N-(2-methylpropyl)-5H-pyrrolo[2,3-b]pyrazine-7-carboxamide]: the figures for the IC50 in series [1], in series [2] and in series [4] (setting [5]) were 0.124 nM, 23 nM and 531 nM, respectively. In series [3], the half-life at 1 μM turned out to be 4.58 h.
